Consider eight compounds from patent US5036055A, “Acylated derivatives of etoposide” (Bristol-Myers Company, priority 1989, dated 1991).

≈ marks a conversion by molar mass, not a printed value. Read-outs that look alike come from different tables or passages of the source.

One assay deals with P388 leukemia. The assay is described as follows: in vivo antitumor activity against murine transplantable P388 leukemia. Details: species or system murine (female CDF1 mice). How it is done: Representative compounds of the present invention were evaluated for antitumor activity against murine transplantable P388 leukemia. Female CDF1 mice were inoculated intraperitoneally with 0.4 ml of diluted ascitic fluid containing 10^6 lymphocytic leukemia P388 cells. […] The percent increase of median survival time (MST) of treated animals over that of untreated control animals was determined and reported as % T/C. Compounds showing % T/C values of 125 or greater are considered to have significant antitumor activity. Table I presents the results of the in vivo evaluation; only the maximum % T/C and the dose giving the maximum effects are reported.

A further assay deals with B16-F10 murine melanoma. Nature of the assay: in vitro cytotoxicity against B16-F10 murine melanoma (neutral red, 540 nm). The class given is cell-based. To be noted: Mus musculus, 72 hours incubation. How it is done: (§1) In vitro cytotoxicity of compounds of the present invention was evaluated against B16-F10 murine melanoma and Moser human colon carcinoma cell lines. Exponentially growing B16-F10 and Moser cells were harvested, counted and suspended in the culture medium at the concentrations of 1.5×10^4 and 3×10^4 cells/ml, respectively. Twenty-four hours after planting cell suspension (180 mcl) into wells of a 96-well microtiter plate, test materials (20 mcl) were added to the wells and the plates were incubated for 72 hours. The cytotoxic activities against the tumor cells were colorimetrically determined at 540 nm after staining viable cells with neutral red solution.

Assay [1] has as its system Moser human colon carcinoma. Nature of the assay: in vitro cytotoxicity against Moser human colon carcinoma (neutral red, 540 nm). To be noted: 72 hours incubation. The class given is cell-based. How it is done: as §1
[2] abbreviates: 120 mg/kg/day, i.p. single dose on day 1, CDF1 mice.
The mark [3] stands for this setting: Mus musculus, P388, ip, 1200 h, read-out: % T/C MST.
Setting [4] is: Mus musculus, P388, ip, 1200 h, 30 mg/kg/day, i.p. single dose on day 1, maximum % T/C at dose giving maximum effect, CDF1 mice, 50 days, read-out: % T/C MST.
Where [5] appears, read: Mus musculus, P388, ip, 1200 h, 120 mg/kg/day, i.p. single dose on day 1, maximum % T/C at dose giving maximum effect, CDF1 mice, 50 days, read-out: % T/C MST.

Consider `COc1cc([C@@H]2c3cc4c(cc3[C@@H](O[C@@H]3O[C@@H]5CO[C@@H](C)O[C@H]5[C@H](O)[C@H]3O)[C@H]3COC(=O)[C@H]23)OCO4)cc(OC)c1O` [Etoposide, etoposide], for which the “Number of survivors/tested on day 50” value in the assay with P388 leukemia (setting [2]) is reported as 6/12. In addition, in the assay on P388 leukemia (setting [3]), the response vs control in vivo at 30 mg/kg is 182% and the response vs control in vivo at 120 mg/kg was > 390%. In the assay on B16-F10 murine melanoma, this compound registered an IC50 of 0.45 µg/mL (≈ 0.765 µM).
On to `COc1cc([C@@H]2c3cc4c(cc3[C@@H](O[C@@H]3O[C@@H]5CO[C@@H](C)O[C@H]5[C@H](OC(C)=O)[C@H]3OC(C)=O)[C@H]3COC(=O)[C@H]23)OCO4)cc(OC)c1O` [Example 1, 2",3"-di-0-acetyl etoposide], for which, in the assay with P388 leukemia (setting [4]), the response vs control in vivo at 30 mg/kg amounted to 165%. In addition, the results for the IC50 (in the assay on B16-F10 murine melanoma; in assay [1]) were 1.3 µg/mL (≈ 1.93 µM) and < 0.8 µg/mL, respectively.
`COc1cc([C@@H]2c3cc4c(cc3[C@@H](O[C@@H]3O[C@@H]5CO[C@@H](C)O[C@H]5[C@H](O)[C@H]3OC(C)=O)[C@H]3COC(=O)[C@H]23)OCO4)cc(OC)c1O` [Example 3, 2"-0-acetyl etoposide]: the response vs control in vivo at 30 mg/kg with P388 leukemia (setting [4]) is 240%. For the same compound, the IC50 amounted to 1.6 µg/mL (≈ 2.54 µM) with B16-F10 murine melanoma and 1.1 µg/mL (≈ 1.74 µM) in assay [1].
Regarding `COc1cc([C@@H]2c3cc4c(cc3[C@@H](O[C@@H]3O[C@@H]5CO[C@@H](C)O[C@H]5[C@H](OC(C)=O)[C@H]3O)[C@H]3COC(=O)[C@H]23)OCO4)cc(OC)c1O` [Example 4, 3"-0-acetyl-etoposide], the response vs control in vivo at 30 mg/kg in the assay on P388 leukemia (setting [4]) is 210%. Moreover, in the assay on B16-F10 murine melanoma, half-maximal inhibition (IC50) was put at 1.4 µg/mL (≈ 2.22 µM).
In the case of `COc1cc([C@@H]2c3cc4c(cc3[C@@H](O[C@@H]3O[C@@H]5CO[C@@H](C)O[C@H]5[C@H](OC=O)[C@H]3OC=O)[C@H]3COC(=O)[C@H]23)OCO4)cc(OC)c1O` [Example 6, 2",3"-di-0-formyl etoposide], the “Number of survivors/tested on day 50” value with P388 leukemia (setting [2]) is 3/4. In addition, the response vs control in vivo at 120 mg/kg in the assay on P388 leukemia (setting [5]) was > 500%. For the same compound, the values for the IC50 (in the assay with B16-F10 murine melanoma; in assay [1]) were 2 µg/mL (≈ 3.1 µM) and 0.84 µg/mL (≈ 1.3 µM), respectively.
For the compound `COc1cc([C@@H]2c3cc4c(cc3[C@@H](O[C@@H]3O[C@@H]5CO[C@@H](C)O[C@H]5[C@H](O)[C@H]3OC(=O)c3ccccc3)[C@H]3COC(=O)[C@H]23)OCO4)cc(OC)c1O` [Example 8, 2"-0-benzoyletoposide], the response vs control in vivo at 120 mg/kg in the assay on P388 leukemia (setting [5]) was found to be 145%. In the assay on B16-F10 murine melanoma, this compound gave an IC50 of 0.92 µg/mL (≈ 1.33 µM).
`COc1cc([C@@H]2c3cc4c(cc3[C@@H](O[C@@H]3O[C@@H]5CO[C@@H](C)O[C@H]5[C@H](OC(=O)c5ccccc5)[C@H]3O)[C@H]3COC(=O)[C@H]23)OCO4)cc(OC)c1O` [Example 9, 3"-0-Benzoyletoposide]: the “Number of survivors/tested on day 50” value in the assay with P388 leukemia (60 mg/kg/day, i.p. single dose on day 1, CDF1 mice) is given as 1/4. Also, the response vs control in vivo at 60 mg/kg in the assay on P388 leukemia (Mus musculus, P388, ip, 1200 h, 60 mg/kg/day, i.p. single dose on day 1, maximum % T/C at dose giving maximum effect, CDF1 mice, 50 days, read-out: % T/C MST) came to 420%. For the same compound, the results for the IC50 (with B16-F10 murine melanoma; in assay [1]) were 0.17 µg/mL (≈ 0.245 µM) and 0.83 µg/mL (≈ 1.2 µM), respectively.
Regarding `COc1cc([C@@H]2c3cc4c(cc3[C@@H](O[C@@H]3O[C@@H]5CO[C@@H](C)O[C@H]5[C@H](OC(=O)c5ccccc5)[C@H]3OC(=O)c3ccccc3)[C@H]3COC(=O)[C@H]23)OCO4)cc(OC)c1O` [Example 10, 2",3"-0-di-benzoyletoposide], the response vs control in vivo at 120 mg/kg in the assay with P388 leukemia (setting [5]) was found to be 125%. Moreover, the IC50 with B16-F10 murine melanoma amounted to 4.4 µg/mL (≈ 5.52 µM).

What is called IC50 is the concentration at which inhibition is half-maximal. A lower IC50 goes with inhibition by little substance.
